Assay: gradient 5% acetonitrile 3 min, to 50% in 2 min, to 85% in 15 min, held 3 min, 100 µL/min
Details: column: Zorbax Extend-C18 2.1 x 50 mm; eluents: water / acetonitrile, 0.1% formic acid
How it was run: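 Retention times come from adduct peaks that were picked computationally and then checked by hand. The standards, pure and pooled in mixtures of ~100 molecules, were run on a Zorbax Extend-C18 column (2.1 × 50 mm, 1.8 μm) at 100 μL/min with water and acetonitrile, each with 0.1% formic acid. Detection was by quadrupole time-of-flight mass spectrometry in positive and negative ionization mode, with a dead volume of 40 μL and a dwell volume of 900 μL.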

Row | Compound | RP-LC retention time [s]
1 | CC(C)NC(=O)N1CCCC(c2cccc(C(=O)NCc3ccccc3C(F)(F)F)c2)C1 (stereo not given) | 966
2 | Cc1ccc(Cn2c(=O)n(CCNC(=O)Cc3ccsc3)c3ncccc32)cc1 | 824
3 | O=C(NC1CCCCCCC1)c1nnc(-c2ccc(S(=O)(=O)N3CCOCC3)cc2)o1 | 991
4 | CCOC(=O)c1[nH]c(C)c(CCC(=O)N2CCC(C(=O)NC(C)C)CC2)c1C | 683
5 | COc1ccc(NC(=O)N2CCN(c3cc(-c4ccc(OC)c(OC)c4)ncn3)CC2)cc1 | 620
6 | CCOC(=O)N1CCN(C(=O)Cc2c(C)nn(-c3nc(-c4ccc(Cl)cc4)cs3)c2C)CC1 | 1110
7 | CCc1ccc(C(=O)N2CCC3(C2)C(=O)Nc2ccc(OC)cc23)cc1 (stereo not given) | 786
8 | CN1c2ccc(Cl)cc2C(=O)NC12CCN(C(=O)c1ccc(F)cc1)CC2 | 818
9 | CCc1ccc(N2CC(c3noc(-c4cnccn4)n3)CC2=O)cc1 (stereo not given) | 760
10 | O=C(NCc1cnoc1-c1ccc(F)cc1)c1ccccc1 | 844
11 | CC(C)n1cc(S(=O)(=O)Nc2cccc(Cl)c2)c2cccnc21 | 946
12 | CC1CCCN(S(=O)(=O)c2ccc(-n3cnc(C(=O)N4CCN(C)CC4)c3)nc2)C1 (stereo not given) | 648
13 | Cc1ccc(C)c(Cn2nc3c(S(=O)(=O)N4CCN(c5ccc(F)cc5)CC4)cccn3c2=O)c1 | 1050
14 | CCC(C)NC(=O)C1CCN(S(=O)(=O)c2c(C)nn(-c3ccc(F)cc3)c2C)CC1 (stereo not given) | 842
15 | CCCNC(=O)Cn1c(=O)cc(-c2nc(C(C)C)no2)c2ccccc21 | 835
16 | COCCCNC(=O)CCc1c(-c2ccc(F)cc2)nc2ccccn12 | 592
17 | Brc1ccc(CSc2nnc(-c3ccccc3)o2)cc1 | 1180
18 | O=C(c1cnc2ccccc2n1)N1CCN(Cc2nc(-c3ccc(F)cc3)cs2)CC1 | 719
19 | CN(C(=O)c1ccncc1)c1ccccc1 | 667
20 | CCCN1CCN(C(=O)c2cn(-c3cc(N4CCSCC4)ncn3)cn2)CC1 | 605
21 | COc1cc(CNCCc2c[nH]c3ccccc23)ccc1OCc1ccc2c(c1)n(C)c(=O)n2C | 670
22 | Cc1noc(-c2cc(=O)n(CC(=O)Nc3ccc(C(C)C)cc3)c3ccccc23)n1 | 1020

Row | Compound | RP-LC retention time [s]
23 | COc1ccc(-c2csc(NC(=O)CS(=O)(=O)c3ccc(C)cc3)n2)c(OC)c1 | 1010
24 | Cc1c(Cl)cccc1NC(=O)N1C[C@@H](F)C[C@H]1C(=O)N1CCCCC1 | 718
25 | O=C(NCc1csc(-c2ccccc2)n1)C1CCN(S(=O)(=O)c2ccccc2)CC1 | 903
26 | Cc1ccc(-c2noc(Cn3ccn(-c4c(C)cccc4C)c(=O)c3=O)n2)cc1 | 925
27 | Cc1ccc(CNC(=O)c2nc(Cn3c(=O)oc4ccc(Cl)cc43)no2)cc1 | 983
28 | Cc1cccc2c(C(=O)N(C)C)cc(=O)[nH]c12 | 597
29 | COCCNC(=O)c1ccc(CS(=O)Cc2ccccc2Cl)o1 (stereo not given) | 664
30 | CN1C(=O)c2cc(C(=O)NCc3ccc(Cl)cc3)nn2CC1(C)C(=O)NC1CCCCC1 (stereo not given) | 850
31 | Cn1nc(-c2nnc(-c3ccccc3)o2)c2c1CCN(S(=O)(=O)c1ccc3c(c1)CCC3)C2 | 688
32 | CCOc1cccc(C(=O)Nc2nc(-c3ccc(OC)c(Br)c3)cs2)c1 | 1280
33 | C[C@@H](NC(=O)c1cccc(Br)c1)C(=O)NCc1cscn1 | 665
34 | CN(C)CCNC(=O)c1cccc2[nH]c(-c3ccncc3)nc12 | 556
35 | CO/N=C(\C(=O)N[C@@H]1C(=O)N2C(C(=O)OCOC(=O)C(C)(C)C)=C(/C=C\c3scnc3C)CS[C@H]12)c1csc(N)n1 | 792
36 | CCN1C(=O)CCc2cc(NS(=O)(=O)c3ccc(C4CCCCC4)cc3)ccc21 | 1060
37 | O=C(NCC1CCCO1)c1ccc(Nc2c(-c3ccccc3)nc3cnccn23)cc1 (stereo not given) | 1140
38 | Cc1cccc(CN2CCCn3nc(C(=O)NC4CC4)cc3C2=O)c1 | 744
39 | Cn1nc(-c2nc(-c3ccccc3F)no2)c2c1CCN(C(=O)NC1CCCC1)C2 | 800
40 | COC(=O)c1c(C)[nH]c(C(=O)N2CCC(CC(=O)NCc3ccc(F)cc3)CC2)c1C | 727
41 | CCOC(=O)c1ccc(NC(=O)N2CC=C(c3cn(CC)c4ncccc34)CC2)cc1 | 606
42 | C=Cc1ccc(CN2CCCN(c3ncccc3-c3nc(C4CC4)no3)CC2)cc1 | 757
43 | O=C(c1ccc2c(c1)OCO2)N1CCc2cc(-c3csc(C4CC4)n3)ccc21 | 1090
44 | COc1ccc(-c2nc(-c3cn(-c4cccc(F)c4)nn3)no2)c(OC)c1 | 999

Row | Compound | RP-LC retention time [s]
45 | CN(C)CCCNC(=O)Cn1c(=O)n(-c2ccc(F)cc2)c2ncccc21 | 577
46 | Cc1cc2n(n1)CCC(=O)N2CCCC(=O)NCc1ccc(C)o1 | 644
47 | Cn1cc(CC(=O)NCc2ccc(Br)cc2)c2cccnc21 | 736
48 | Cc1ncoc1C(=O)NCC1Cn2cccc2C(=O)N1CC(C)C (stereo not given) | 647
49 | Cc1cccc(OCCc2noc(C3CN(S(=O)(=O)N(C)C)C3)n2)c1 | 950
50 | COC(=O)Cn1c(=O)c2c(nc3n2CCCN3c2ccccc2)n(C)c1=O | 761
51 | CN1C(=O)c2cccnc2Sc2cc(NC(=O)C(C)(C)C)ccc21 | 735
52 | CC(=O)NCc1ccc(-c2noc(-c3ccc(Br)cc3)n2)s1 | 938
53 | CCOc1cccc(CNC(=O)C2CCN(Cc3cn(C)c4ccccc34)CC2)c1 | 686
54 | Cc1ccc(C)c(NC(=O)Cn2ncc3c(c2=O)N(C2CC2)C(=O)CS3)c1 | 732
55 | CN(C)CCNC(=O)c1ccc(-c2ccnc(N3CCCC3)n2)cc1 | 560
56 | CCCNC(=O)N1CCCN(C2=NS(=O)(=O)C(c3ccc(C)c(C)c3)=C2C)CC1 | 809
57 | CNC(=O)N1CCCC(c2cccc(C(=O)NCc3ccc(N(C)C)cc3)c2)C1 (stereo not given) | 607
58 | COc1ccc(-c2ccnn2-c2ccc(SCC(N)=O)nn2)cc1 | 777
59 | Cc1cccc(-c2noc(CN3N=NC4C(=O)N(c5ccc(F)cc5)C(=O)C43)n2)c1 (stereo not given) | 1020
60 | CCOC(=O)CCCn1nc(C)c2c(C)n(-c3ccccc3)nc2c1=O | 829
61 | CN(CCc1noc(-c2ccc(C(=O)N3CCOCC3)cc2)n1)C(=O)C1CCCCC1 | 752
62 | COC(=O)C1=CN(c2cccc(F)c2)c2cc(F)ccc2S1(=O)=O | 869
63 | COc1cccc(C(=O)N2CCc3c(c(-c4nc(C5CC5)no4)nn3C)C2)c1 | 800
64 | CCOc1ccc(S(=O)(=O)N2CCC(C(=O)Nc3ccc(Br)cc3F)CC2)cc1 | 1060
65 | CNC(=O)N1CCC(C2CCN(C(=O)CN3CCCC3=O)C2)CC1 (stereo not given) | 585
